Reference: US10259810B2, “N-sulfonylated pyrazolo[3,4-b]pyridin-6-carboxamides and method of use” (AbbVie S.à.r.l., priority 2015, dated 2019)
Read-outs that look alike come from different tables or passages of the source.

Key:
Type in all cases: cell-based
ΔF508-CFTR [1] = target: T1, ΔF508-CFTR (Homo sapiens, UniProt P13569, DEL508-508); assay: CFTR cell surface levels using HRP-tagged ΔF508-CFTR expressing CFBE cells, in the presence of a co-corrector; conditions: HRP-tagged ΔF508-CFTR CFBE cells, in the presence of 3 μM co-corrector; for EC50: read-out: EC50
T1 construct: host or cells: CFBE41o-, doxycycline-inducible
Outline: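 Chemiluminescent read-out of surface HRP (15 min, dark) after PBS washes. Activity is normalized as 100×(sample−DMSO)/(3 μM co-corrector alone−DMSO).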

CFTR ΔF508 = target: T2, CFTR ΔF508 (Homo sapiens, UniProt P13569, DEL508-508); assay: Chronic TECC assay, primary bronchial epithelial cells of CF patients homozygous for CFTR ΔF508 (corrector, co-corrector and potentiator); conditions: chronic TECC; for % Activity at 3 μM (AUC**): test compound at 3 μM
T2 construct: bronchial epithelial cells isolated from CF patients homozygous for the CFTR ΔF508 mutation; McGill University; Asterand; University of North Carolina hAEC-CF; host or cells: primary human bronchial epithelial cells from CF patients homozygous for ΔF508, differentiated at air-liquid interface
Procedure: Primary Bronchial Epithelial Cells Protocol
The TECC (Tranepithelial Clamp Circuit, EP-design) assay measures the functionality of the cystic fibrosis Transmembrane Conductance regulator (CFTR) by measuring the short circuit current (Isc) generated over the basolateral and apical membrane of lung epithelial cells. In TECC the transepithelial potential PD and transepithelial resistance (Rt) are measured in an open circuit and transformed to Ieq using Ohm's law. 24 Wells can be measured simultaneously allowing a higher throughput compared to Ussing chambers.
For this purpose, bronchial epithelial cells isolated from CF patients homozygous for the CFTR ΔF508 mutation (hAEC-CF, Epithelix, Geneva, Switzerland; McGill University, Montreal, Qc; Asterand, Detroit, Mich.; University of North Carolina, Chapel Hill, N.C.) are plated on type IV collagen-coated Transwell® supports (Costar).
For electrophysiological recording of the “chronic” experiments, the human airway epithelia are mounted in the TECC heating plate for electrophysiological measurement and kept at 37° C. The epithelia are bathed in a NaCl-Ringer solution (120 mM NaCl, 25 mM NaHCO3, 1.2 mM CaCl2, 1.2 mM MgCl2, 0.8 mM KH2PO4, 0.8 mM K2HPO4, pH 7.4, 5 mM glucose) on both the basolateral and apical sides. Test compounds (corrector, co-corrector, 4-[(2R,4R)-4-({[1-(2,2-difluoro-1,3-benzodioxol-5-yl)cyclopropyl]carbonyl}amino)-7-(difluoromethoxy)-3,4-dihydro-2H-chromen-2-yl]benzoic acid, and potentiator, N-(3-carbamoyl-5,5,7,7-tetramethyl-4,7-dihydro-5H-thieno[2,3-c]pyran-2-yl)-1H-pyrazole-5-carboxamide), are re-added to the recording solution prior to measurement. […] Apical amiloride is used to inhibit the endogenous ENaC currents while forskolin is applied on both apical and basolateral side to stimulate CFTR. Measurements are done during a 20 minute timeframe with recordings every 2 minutes. The increase in Ieq is used as a measure for the increased CFTR activity, EC50 values can be generated by measuring impact of different concentrations of compound on Ieq on primary cells, for this purpose each transwell is treated with a different compound concentration. […] Raw data were normalized to percentage activity values using the equation: 100×(Sample−Negative control)/(Positive control−Negative Control).

ΔF508-CFTR [2] = target: T1, ΔF508-CFTR; assay: CFTR cell surface levels using HRP-tagged ΔF508-CFTR expressing CFBE cells, intrinsic corrector capacity; parameters: % Activation: concentration or dose not given beside the values; conditions: HRP-tagged ΔF508-CFTR expressing CFBE41o- cells, compound alone (intrinsic corrector capacity), 20 hours at 33° C.; for EC50: read-out: EC50
Outline: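 Read-out: chemiluminescent HRP activity of ECL4-HRP-tagged ΔF508-CFTR at the cell surface, 15 min substrate in dark. Normalized as 100×(sample−DMSO)/(positive control−DMSO).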

[3] = AUC = full area under the curve upon forskolin stimulation, read-out: EC50 (nM) (AUC**)
[4] = test compound at 1 μM, AUC = full area under the curve upon forskolin stimulation
[5] = AUC = full area under the curve upon forskolin stimulation

T2 sequence (P13569 with tags, fused parts or gaps DEL508-508): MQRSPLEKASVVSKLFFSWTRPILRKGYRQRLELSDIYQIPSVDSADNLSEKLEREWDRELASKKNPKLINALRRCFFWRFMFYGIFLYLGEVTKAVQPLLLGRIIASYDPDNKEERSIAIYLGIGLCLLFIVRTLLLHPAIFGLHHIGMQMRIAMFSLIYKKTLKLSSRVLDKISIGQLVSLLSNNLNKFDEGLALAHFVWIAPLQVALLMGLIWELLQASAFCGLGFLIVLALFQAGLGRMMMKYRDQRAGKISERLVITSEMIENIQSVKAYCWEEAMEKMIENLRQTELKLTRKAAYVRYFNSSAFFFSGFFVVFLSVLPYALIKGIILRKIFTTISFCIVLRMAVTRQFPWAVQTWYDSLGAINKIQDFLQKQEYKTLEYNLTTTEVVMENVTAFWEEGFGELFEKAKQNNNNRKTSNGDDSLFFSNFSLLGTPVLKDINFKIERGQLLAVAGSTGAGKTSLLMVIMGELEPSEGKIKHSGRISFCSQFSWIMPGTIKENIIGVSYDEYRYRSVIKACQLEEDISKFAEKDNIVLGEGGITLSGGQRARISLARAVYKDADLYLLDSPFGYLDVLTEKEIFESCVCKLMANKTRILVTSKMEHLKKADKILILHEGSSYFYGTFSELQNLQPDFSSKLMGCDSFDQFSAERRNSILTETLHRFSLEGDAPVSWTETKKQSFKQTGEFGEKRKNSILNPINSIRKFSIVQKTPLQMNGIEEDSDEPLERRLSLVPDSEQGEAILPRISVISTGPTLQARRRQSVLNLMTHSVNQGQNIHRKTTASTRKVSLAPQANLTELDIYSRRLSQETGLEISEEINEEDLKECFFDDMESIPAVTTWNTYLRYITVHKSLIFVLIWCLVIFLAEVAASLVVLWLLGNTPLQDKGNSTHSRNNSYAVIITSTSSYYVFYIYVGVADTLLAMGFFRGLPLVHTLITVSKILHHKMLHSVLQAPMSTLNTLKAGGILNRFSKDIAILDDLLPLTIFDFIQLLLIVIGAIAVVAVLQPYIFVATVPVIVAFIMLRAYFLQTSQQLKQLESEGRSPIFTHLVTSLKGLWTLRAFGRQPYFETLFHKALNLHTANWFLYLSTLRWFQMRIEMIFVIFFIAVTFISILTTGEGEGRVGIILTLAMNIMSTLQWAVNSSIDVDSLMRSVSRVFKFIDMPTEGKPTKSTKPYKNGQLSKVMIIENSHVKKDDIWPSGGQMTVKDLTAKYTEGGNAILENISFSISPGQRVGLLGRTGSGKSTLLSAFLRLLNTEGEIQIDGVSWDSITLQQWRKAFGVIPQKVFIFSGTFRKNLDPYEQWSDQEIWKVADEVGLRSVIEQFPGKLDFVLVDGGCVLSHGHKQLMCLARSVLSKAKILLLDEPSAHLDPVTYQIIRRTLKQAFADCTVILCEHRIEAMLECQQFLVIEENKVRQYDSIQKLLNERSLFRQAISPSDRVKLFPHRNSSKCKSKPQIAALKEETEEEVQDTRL
T1 sequence (P13569 with tags, fused parts or gaps DEL508-508): as above

COCCS(=O)(=O)NC(=O)c1cc(N2CCC(COC)CC2)c2c(C(C)C)nn(-c3ccc(F)cc3)c2n1 [Compound 236, 1-(4-fluorophenyl)-N-(2-methoxyethanesulfonyl)-4-[4-(methoxymethyl)piperidin-1-yl]-3-(propan-2-yl)-1H-pyrazolo[3,4-b]pyridine-6-carboxamide]
% Activation (ΔF508-CFTR [1]): 497.5%
EC50 (ΔF508-CFTR [1]): 93.2 nM
EC50 (CFTR ΔF508; [3]): 80 nM
% Activity at 1 μM (AUC**) (CFTR ΔF508; [4]): 434.22%
% Activation (ΔF508-CFTR [2]): 309.83%
EC50 (ΔF508-CFTR [2]): 316 nM

Cc1cc(N2CCN(c3cc(C(=O)NS(=O)(=O)N(C)C)nc4c3c(C3CCC3)nn4C3CCCCC3)CC2)ccn1 [Compound 535, 3-cyclobutyl-1-cyclohexyl-N-(dimethylsulfamoyl)-4-[4-(2-methylpyridin-4-yl)piperazin-1-yl]-1H-pyrazolo[3,4-b]pyridine-6-carboxamide]
% Activation (ΔF508-CFTR [1]): 670.35%
EC50 (ΔF508-CFTR [1]): 1250 nM
% Activity at 1 μM (AUC**) (CFTR ΔF508; [4]): 335.0294%
% Activation (ΔF508-CFTR [2]): 385.8%
EC50 (ΔF508-CFTR [2]): 389 nM

O=C(NS(=O)(=O)C1CCOC1)c1cc(N2CCC(N3CCOCC3)CC2)c2c(C3CCC3)nn(-c3ccc(F)cc3)c2n1 (stereo not drawn) [Compound 429, 3-cyclobutyl-1-(4-fluorophenyl)-4-[4-(morpholin-4-yl)piperidin-1-yl]-N-(oxolane-3-sulfonyl)-1H-pyrazolo[3,4-b]pyridine-6-carboxamide]
% Activation (ΔF508-CFTR [1]): 422.8%
EC50 (ΔF508-CFTR [1]): 205 nM
EC50 (CFTR ΔF508; [3]): 83.8 nM
% Activity at 1 μM (AUC**) (CFTR ΔF508; [4]): 180%
% Activation (ΔF508-CFTR [2]): 252.1%
EC50 (ΔF508-CFTR [2]): 378 nM

COCCS(=O)(=O)NC(=O)c1cc(N2CCC(COC)CC2)c2c(C(C)C)nn(CC3CCC3)c2n1 [Compound 263, 1-(cyclobutylmethyl)-N-(2-methoxyethanesulfonyl)-4-[4-(methoxymethyl)piperidin-1-yl]-3-(propan-2-yl)-1H-pyrazolo[3,4-b]pyridine-6-carboxamide]
% Activation (ΔF508-CFTR [1]): 475.45%
EC50 (ΔF508-CFTR [1]): 404 nM
EC50 (CFTR ΔF508; [3]): 77 nM
% Activity at 1 μM (AUC**) (CFTR ΔF508; [4]): 399.85%
% Activation (ΔF508-CFTR [2]): 260.1%
EC50 (ΔF508-CFTR [2]): 445 nM

CC(C)c1nn(-c2ccc(F)cc2)c2nc(C(=O)NS(C)(=O)=O)cc(N3CCC(N4CCCCC4)CC3)c12 [Compound 348, 4-([1,4'-bipiperidin]-1'-yl)-1-(4-fluorophenyl)-N-(methanesulfonyl)-3-(propan-2-yl)-1H-pyrazolo[3,4-b]pyridine-6-carboxamide]
% Activation (ΔF508-CFTR [1]): 468.65%
EC50 (ΔF508-CFTR [1]): 723 nM
EC50 (CFTR ΔF508; [3]): 200 nM
% Activity at 1 μM (AUC**) (CFTR ΔF508; [4]): 343.24%
% Activation (ΔF508-CFTR [2]): 293.6%
EC50 (ΔF508-CFTR [2]): 5970 nM

CC(=O)N1CCC(F)(COc2cc(C(=O)NS(C)(=O)=O)nc3c2c(C2CCC2)nn3-c2ccccc2)CC1 [Compound 274, 4-[(1-acetyl-4-fluoropiperidin-4-yl)methoxy]-3-cyclobutyl-N-(methanesulfonyl)-1-phenyl-1H-pyrazolo[3,4-b]pyridine-6-carboxamide]
% Activation (ΔF508-CFTR [1]): 300%
EC50 (ΔF508-CFTR [1]): 398 nM
EC50 (CFTR ΔF508; [3]): > 300 nM
% Activity at 1 μM (AUC**) (CFTR ΔF508; [4]): 224.99%
% Activation (ΔF508-CFTR [2]): 159.05%
EC50 (ΔF508-CFTR [2]): 842 nM

COCC1CCN(c2cc(C(=O)NS(=O)(=O)C3CCOC3)nc3c2c(C2CCC2)nn3-c2ccccc2)CC1 (stereo not drawn) [Compound 369, 3-cyclobutyl-4-[4-(methoxymethyl)piperidin-1-yl]-N-(oxolane-3-sulfonyl)-1-phenyl-1H-pyrazolo[3,4-b]pyridine-6-carboxamide]
% Activation (ΔF508-CFTR [1]): 444%
EC50 (ΔF508-CFTR [1]): 106 nM
EC50 (CFTR ΔF508; [3]): 8.3 nM
% Activity at 1 μM (AUC**) (CFTR ΔF508; [4]): 583.16%
% Activation (ΔF508-CFTR [2]): 292.7%
EC50 (ΔF508-CFTR [2]): 101 nM

COCC1CCN(c2cc(C(=O)NS(C)(=O)=O)nc3c2c(C(C)C)nn3-c2cccc(N(C)C)c2)CC1 [Compound 144, 1-[3-(dimethylamino)phenyl]-N-(methanesulfonyl)-4-[4-(methoxymethyl)piperidin-1-yl]-3-(propan-2-yl)-1H-pyrazolo[3,4-b]pyridine-6-carboxamide]
% Activation (ΔF508-CFTR [1]): 674.7%
EC50 (ΔF508-CFTR [1]): 243 nM
EC50 (CFTR ΔF508; Ieq = calculations based on the maximum current, read-out: EC50 (nM) (Ieq*)): 12 nM
% Activity at 1 μM (Ieq*) (CFTR ΔF508; test compound at 1 μM, Ieq = calculations based on the maximum current): 350%
% Activation (ΔF508-CFTR [2]): 531.6%
EC50 (ΔF508-CFTR [2]): 417 nM

COCC1CCN(c2cc(C(=O)NS(=O)(=O)CCCN3CCOCC3)nc3c2c(C(C)C)nn3-c2ccc(F)cc2)CC1 [Compound 272, 1-(4-fluorophenyl)-4-[4-(methoxymethyl)piperidin-1-yl]-N-[3-(morpholin-4-yl)propane-1-sulfonyl]-3-(propan-2-yl)-1H-pyrazolo[3,4-b]pyridine-6-carboxamide]
% Activation (ΔF508-CFTR [1]): 451.2%
EC50 (ΔF508-CFTR [1]): 43.3 nM
% Activity at 1 μM (AUC**) (CFTR ΔF508; [4]): 285.35%
% Activation (ΔF508-CFTR [2]): 268.2%
EC50 (ΔF508-CFTR [2]): 96.5 nM

O=C(NS(=O)(=O)N1CCOCC1)c1cc(N2CCC(N3CCN(C4CC4)CC3)CC2)c2c(C3CCC3)nn(-c3ccccc3)c2n1 [Compound 555, 3-cyclobutyl-4-[4-(4-cyclopropylpiperazin-1-yl)piperidin-1-yl]-N-(morpholine-4-sulfonyl)-1-phenyl-1H-pyrazolo[3,4-b]pyridine-6-carboxamide]
% Activation (ΔF508-CFTR [1]): 432.55%
EC50 (ΔF508-CFTR [1]): 104 nM
EC50 (CFTR ΔF508; [3]): 107 nM
% Activity at 1 μM (AUC**) (CFTR ΔF508; [4]): 296.6667%
% Activation (ΔF508-CFTR [2]): 235.5%
EC50 (ΔF508-CFTR [2]): 359 nM

CN1CCN(c2ccc(-c3cc(C(=O)NS(=O)(=O)N(C)C)nc4c3c(C3CCC3)nn4C3CCCCC3)cn2)CC1 [Compound 551, 3-cyclobutyl-1-cyclohexyl-N-(dimethylsulfamoyl)-4-[6-(4-methylpiperazin-1-yl)pyridin-3-yl]-1H-pyrazolo[3,4-b]pyridine-6-carboxamide]
% Activation (ΔF508-CFTR [1]): 403.1%
EC50 (ΔF508-CFTR [1]): 382 nM
% Activity at 1 μM (AUC**) (CFTR ΔF508; [4]): 239.0643%
% Activation (ΔF508-CFTR [2]): 197.8%
EC50 (ΔF508-CFTR [2]): 763 nM

COCC1CCN(c2cc(C(=O)NS(=O)(=O)N3CCC(N4CCOCC4)C3)nc3c2c(C2CCC2)nn3-c2ccc(F)cc2)CC1 (stereo not drawn) [Compound 608, 3-cyclobutyl-1-(4-fluorophenyl)-4-[4-(methoxymethyl)piperidin-1-yl]-N-[3-(morpholin-4-yl)pyrrolidine-1-sulfonyl]-1H-pyrazolo[3,4-b]pyridine-6-carboxamide]
% Activation (ΔF508-CFTR [1]): 365.7%
EC50 (ΔF508-CFTR [1]): 54.8 nM
% Activity at 3 μM (AUC**) (CFTR ΔF508; [5]): 442.1916%
% Activation (ΔF508-CFTR [2]): 194.67%
EC50 (ΔF508-CFTR [2]): 104 nM

COCC1CCN(c2cc(C(=O)NS(=O)(=O)N3CCC(N4CCOCC4)CC3)nc3c2c(C2CCC2)nn3-c2ccccc2)CC1 [Compound 397, 3-cyclobutyl-4-[4-(methoxymethyl)piperidin-1-yl]-N-[4-(morpholin-4-yl)piperidine-1-sulfonyl]-1-phenyl-1H-pyrazolo[3,4-b]pyridine-6-carboxamide]
% Activation (ΔF508-CFTR [1]): 381.8%
EC50 (ΔF508-CFTR [1]): 49 nM
% Activity at 3 μM (AUC**) (CFTR ΔF508; [5]): 251.7766%
% Activation (ΔF508-CFTR [2]): 234.5%
EC50 (ΔF508-CFTR [2]): 155 nM

CC(C)N(CCOc1cc(C(=O)NS(C)(=O)=O)nc2c1c(C1CCC1)nn2-c1ccccc1)C1COC1 [Compound 325, 3-cyclobutyl-N-(methanesulfonyl)-4-{2-[(oxetan-3-yl)(propan-2-yl)amino]ethoxy}-1-phenyl-1H-pyrazolo[3,4-b]pyridine-6-carboxamide]
% Activation (ΔF508-CFTR [1]): 309.8%
EC50 (ΔF508-CFTR [1]): 153 nM
% Activity at 1 μM (AUC**) (CFTR ΔF508; [4]): 317.57%
% Activation (ΔF508-CFTR [2]): 151.4%
EC50 (ΔF508-CFTR [2]): 335 nM
